Assay results taken from patent US20060069010A1, “Detoxification depot for Alzheimer's disease” (Senicure LLC, priority 2003, published 2006).
Square brackets hold non-standard residues; d marks the D form. Ends that are not written are not given here.

Experiments:
[1] = tested on: Aβ; conditions: after 1 day of treatment; on the order of 500 ng/g tissue; cited from earlier work
[2] = tested on: nt-bAP; conditions: according to the thioflavin assay (Zhang et al.); cited from earlier work
[3] = biological target: T1, biotinylated Aβ^1-40 peptide (Homo sapiens, UniProt P05067); assay: direct ELISA, plate-immobilised capture peptide probed with biotinylated Aβ peptide; type: binding; conditions: 1 μg/well capture peptide, 1 μg/ml biotinylated Aβ, 2 hours; compared to scrambled or irrelevant control peptide (FIG. 1a)
T1 construct: biotinylated Aβ^1-40 peptide (1.7 μg/ml) at 37° C; purchased
Method: (§1) FIG. 1a graphically illustrates binding of biotinylated Aβ^1-42 and biotinylated Aβ^1-40 peptide by RI peptide. 96-well plate was coated with the capture peptide (1 μg/well of retro-inverso [RI], scrambled [SCR] or an irrelevant control peptide), blocked with gelatin and probed with 1 μg/ml of biotinylated Aβ peptide for 2 hours and streptavidin peroxidase for 1 hour. Experiments were repeated and were calculated as Mean±SE (N=2) and expressed as pmols Aβ^1-42/ml of binding solution. Graded concentrations of biotinylated Aβ^1-42 peptide was used as a calibration standard.
(§2) Testing the binding and stability of biotinylated Aβ peptides in binding solution. The ability of the biotinylated, nt-bAP, which is represented by Aβ peptides (1-42 and 1-40) to bind the binding element, the retro inverso peptide (RI) was investigated on a direct ELISA as described at the end of this section. RI, scrambled or an irrelevant peptide, immobilized on an ELISA plate was allowed to bind biotinylated Aβ peptides, 1-42 or 1-40.

[4] = biological target: T2, biotinylated Aβ^1-42 peptide (Homo sapiens, UniProt P05067); assay: as above; type: binding; conditions: 1 μg/well capture peptide, 1 μg/ml biotinylated Aβ, 2 hours; compared to scrambled or irrelevant control peptide (FIG. 1a)
T2 construct: biotinylated Aβ^1-42 peptide (1.7 μg/ml) at 37° C; purchased
Method: as §1, §2

Aβ, sequence (P05067 672-711 limits assumed): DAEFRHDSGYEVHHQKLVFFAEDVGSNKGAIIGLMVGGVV
T1 sequence (P05067 672-711): as the sequence (P05067 672-711 limits assumed) above
nt-bAP, sequence (P05067 672-711 limits assumed): as above
T2 sequence (P05067 672-713): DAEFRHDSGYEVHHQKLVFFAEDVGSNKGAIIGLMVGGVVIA

GM1
levels of Aβ in brain [1]: reduced in half

gelsolin
levels of Aβ in brain [1]: reduced in half

phe-phe-val-leu-lys [ffvlk]
toxicity of aggregates of binding element with nt-bAP [2]: less toxic than nt-bAP itself

phe-phe-val-leu-lys-Cys ([dF][dF][dV][dL][dK][dC]-NH2; not fully specified; printed as phe-phe-val-leu-lys-Cys) [RI peptide]
binding of biotinylated Aβ^1-40 by capture peptide [3]: significant and specific binding | binding of biotinylated Aβ^1-42 by capture peptide [4]: significant and specific binding
